From US12338256B2, “Aza-tetracyclic oxazepine compounds and uses thereof” (Genentech, Inc., priority 2022, dated 2025)
Where two headings read alike, the source gives them in different places.

Legend:
[1] = target: KRAS G12D (Homo sapiens, UniProt P01116, G12D); test: KRAS G12D LoEnz Biochemical Assay, BODIPY-GDP Exchange TR-FRET (Example 500); conditions: read-out: KRas (G12D) GDP HTRF IC50
Description: Example 500: KRAS G12D LoEnz Biochemical Assay, BODIPY-GDP Exchange TR-FRET. Biochemical compound potencies are assessed by evaluating inhibition of SOS1-mediated nucleotide exchange in KRAS G12D. In this assay, the SOS1-promoted exchange of fluorescently-labeled GDP (BOPIDY-GDP) is monitored by time-resolved fluorescence resonance energy transfer (TR-FRET). Compounds solubilized in DMSO are dispensed as concentration series into 384-well white assay plates. A preformed complex of biotin-tagged recombinant human KRAS (0.06 nM mutant G12D) and 0.06 nM terbium-labeled streptavidin (CisBIO) prepared in 10 uL/well assay buffer (20 mM HEPES, pH 7.5, 50 mM NaCl, 10 mM MgCl2, 0.01% Tween-20 and 1 mM dithiothreitol) is added and allowed to incubate for 10-minutes at room temperature. The reaction is initiated with the addition of 5 uL 300 nM recombinant human SOS1 and 300 nM BODIPY-GDP in assay buffer. After a 120-minute incubation, the fluorescence is measured with excitation at 337 nm and emission at 490 and 520 nm. The TR-FRET ratio is determined as the fluorescence at 520 nm divided by the fluorescence at 490 nm multiplied by 10,000. The results are normalized to percent inhibition based on control samples: DMSO (0% inhibition) and control compound at a concentration that inhibits completely (100% inhibition). The normalized TR-FRET results are plotted against compound concentration, and the data are fit to a 4-parameter Hill equation to determine the IC50 values.

[2] = target: T1, KRAS WT (Homo sapiens, UniProt P01116); test: KRAS WT Biochemical Assay, BODIPY-GDP Exchange TR-FRET (Example 502; 0.06 nM KRAS WT, 15 nM GDP, 300 nM SOS1, 120-minute incubation); conditions: SOS1-mediated BODIPY-GDP exchange, read-out: KRas HTRF IC50
Description: Example 502: KRAS WT Biochemical Assay, BODIPY-GDP Exchange TR-FRET. Biochemical compound potencies are assessed by evaluating inhibition of SOS1-mediated nucleotide exchange in KRAS WT. In this assay, the SOS1-promoted exchange of fluorescently-labeled GDP (BOPIDY-GDP) is monitored by time-resolved fluorescence resonance energy transfer (TR-FRET). Compounds solubilized in DMSO are dispensed as concentration series into 384-well white assay plates. A preformed complex of 0.06 nM biotin-tagged recombinant human KRAS WT, 15 nM GDP and 0.06 nM terbium-labeled streptavidin (CisBIO) prepared in 10 uL/well assay buffer (20 mM HEPES, pH 7.5, 50 mM NaCl, 10 mM MgCl2, 0.01% Tween-20 and 1 mM dithiothreitol) is added and allowed to incubate for 10-minutes at room temperature. The reaction is initiated with the addition of 5 uL 300 nM recombinant human SOS1 and 300 nM BODIPY-GDP in assay buffer. After a 120-minute incubation, the fluorescence is measured with excitation at 337 nm and emission at 490 and 520 nm. The TR-FRET ratio is determined as the fluorescence at 520 nm divided by the fluorescence at 490 nm multiplied by 10,000. The results are normalized to percent inhibition based on control samples: DMSO (0% inhibition) and control compound at a concentration that inhibits completely (100% inhibition). […]

[3] = system: HPAC (homozygous mutant KRAS G12D human pancreatic cell line); test: KRAS 3D-Cell Proliferation Assay, HPAC (Example 503); assay type: cell-based; conditions: Homo sapiens, HPAC, 168 h, HPAC 3D culture, 7 days, CellTiter-Glo 3D; read-out: Prolif HPAC 3D ATP IC50
Procedure, shortened: (§1)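 IC50 values derive from 4-parameter Hill fits of normalized luminescence, where DMSO sets 0% and 1 μM staurosporine 100% inhibition. 3D cultures in RPMI-1640 with 10% fetal bovine serum were exposed to compound for 7 days before CellTiter-Glo 3D lysis.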

[4] = system: H1975 (KRAS wild type human lung adenocarcinoma cell line); test: KRAS 3D-Cell Proliferation Assay, H1975 (Example 503); assay type: cell-based; conditions: Homo sapiens, NCI-H1975, 168 h, H1975 3D culture, 7 days, CellTiter-Glo 3D; read-out: Prolif H1975 3D ATP IC50
Procedure, shortened: as §1

[5] = system: AsPC-1 (homozygous mutant KRAS G12D human pancreatic cell line); test: KRAS 3D-Cell Proliferation Assay, AsPC-1 (Example 503); assay type: cell-based; conditions: Homo sapiens, ASPC1, 168 h, AsPC-1 3D culture, 7 days, CellTiter-Glo 3D; read-out: Prolif AsPC-1 3D ATP IC50
Procedure, shortened: as §1

[6] = system: PC-9 (KRAS wild type human lung adenocarcinoma cell line); test: KRAS 3D-Cell Proliferation Assay, PC-9 (Example 503); assay type: cell-based; conditions: 168 h, PC-9 3D culture, 7 days, CellTiter-Glo 3D, read-out: Prolif PC9 3D ATP IC50
Procedure, shortened: as §1

[7] = target: T1, KRAS WT; test: KRAS WI Biochemical Assay, BODIPY-GDP Exchange TR-FRET (Example 501; 3 nM KRAS WT, 3 nM SOS1, 60-minute incubation)
Description: Example 501: KRAS WI Biochemical Assay, BODIPY-GDP Exchange TR-FRET. Biochemical compound potencies are assessed by evaluating inhibition of SOS1-mediated nucleotide exchange in KRAS WT. In this assay, the SOS1-promoted exchange of fluorescently-labeled GDP (BOPIDY-GDP) is monitored by time-resolved fluorescence resonance energy transfer (TR-FRET). Compounds solubilized in DMSO are dispensed as concentration series into 384-well white assay plates, and 5 uL assay buffer (20 mM HEPES, pH 7.5, 50 mM NaCl, 10 mM MgCl2, 0.01% Tween-20 and 1 mM dithiothreitol) is added just prior to the start of the assay. A preformed complex of 3 nM biotin-tagged recombinant human KRAS WT and 0.3 nM terbium-labeled streptavidin (CisBIO) prepared in 5 uL/well assay buffer is added and allowed to incubate for 10-minutes at room temperature. The reaction is initiated with the addition of 5 uL 3 nM recombinant human SOS1 and 300 nM BODIPY-GDP in assay buffer. After a 60-minute incubation, the fluorescence is measured with excitation at 337 nm and emission at 490 and 520 nm. The TR-FRET ratio is determined as the fluorescence at 520 nm divided by the fluorescence at 490 nm multiplied by 10,000. The results are normalized to percent inhibition based on control samples: DMSO (0% inhibition) and control compound at a concentration that inhibits completely (100% inhibition). The normalized TR-FRET results are plotted against compound concentration, and the data are fit to a 4-parameter Hill equation to determine the IC50 values.

[8] = SOS1-mediated BODIPY-GDP exchange TR-FRET
[9] = SOS1-mediated BODIPY-GDP exchange TR-FRET, read-out: KRas HTRF IC50
[10] = SOS1-mediated BODIPY-GDP exchange, read-out: KRas(wt) GDP HTRF IC50

T1 sequence (P01116 1-188 isoform P01116-2): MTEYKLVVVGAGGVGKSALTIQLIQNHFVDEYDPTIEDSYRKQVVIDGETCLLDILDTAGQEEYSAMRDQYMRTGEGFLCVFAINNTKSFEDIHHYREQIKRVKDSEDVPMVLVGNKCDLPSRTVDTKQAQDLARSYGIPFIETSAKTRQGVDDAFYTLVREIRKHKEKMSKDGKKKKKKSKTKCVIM
KRAS G12D, sequence (P01116 1-188 isoform P01116-2 G12D): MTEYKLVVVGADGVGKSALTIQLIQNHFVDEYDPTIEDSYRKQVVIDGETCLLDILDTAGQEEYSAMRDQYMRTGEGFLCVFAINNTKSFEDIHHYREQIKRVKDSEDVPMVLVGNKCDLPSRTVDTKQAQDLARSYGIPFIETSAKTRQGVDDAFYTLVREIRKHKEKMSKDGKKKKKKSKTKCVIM

| SMILES | IC50 ([1]; BODIPY-GDP exchange) | IC50 [2] | IC50 [3] | IC50 [4] | IC50 [5] | IC50 [6] | IC50 [1, 8] | IC50 [7, 9] | IC50 [7, 10] |
| --- | --- | --- | --- | --- | --- | --- | --- | --- | --- |
| Cc1c(F)c(N)cc(-c2nc3c4c(nc(OC[C@H]5CC[C@@H]6C(=O)N(C)CCN56)nc4c2F)N2C[C@H]4CC[C@H](N4)[C@H]2[C@H](C)O3)c1C(F)(F)F (relative stereo) [Compound 123, 6-((((5S,5aS,6S,9R)-2-(5-Amino-4-fluoro-3-methyl-2-(trifluoromethyl)phenyl)-1-fluoro-5-methyl-5a,6,7,8,9,10-hexahydro-5H-4-oxa-3,10a,11,13,14-pentaaza-6,9-methanonaphtho[1,8-ab]heptalen-12-yl)oxy)methyl)-2-methylhexahydropyrrolo[1,2-a]pyrazin-1(2H)-one] | 0.7 nM | 181 nM | 63 nM | 13900 nM |  |  |  |  |  |
| C[C@@H]1Oc2nc(-c3cc(N)cc(F)c3C(F)(F)F)c(F)c3nc(OC[C@H]4CC[C@@H]5COC(C)(C)CN45)nc(c23)N2C[C@H]3CC[C@H](N3)[C@@H]12 (relative stereo) [Compound 125, 3-((5S,5aS,6S,9R)-12-((3,3-dimethylhexahydro-1H-pyrrolo[2,1-c][1,4]oxazin-6-yl)methoxy)-1-fluoro-5-methyl-5a,6,7,8,9,10-hexahydro-5H-4-oxa-3,10a,11,13,14-pentaaza-6,9-methanonaphtho[1,8-ab]heptalen-2-yl)-5-fluoro-4-(trifluoromethyl)aniline] | 0.23 nM | 14.7 nM | 2.14 nM | 1220 nM | 10.2 nM |  |  |  |  |
| C#Cc1cccc2cc(O)cc(-c3nc4c5c(nc(OC[C@]67CCN6CC(F)(F)C7)nc5c3F)N3C[C@H]5CC[C@H](N5)[C@H]3[C@H](C)O4)c12 (single isomer, unassigned) [Compound 19] | 0.08 nM |  | 3.31 nM | 217 nM | 5.05 nM | 8800 nM |  |  |  |
| Cc1cc(N)c(Cl)c(-c2nc3c4c(nc(OC[C@@]56CCCN5C[C@H](F)C6)nc4c2F)N2C[C@H]4CC[C@H](N4)[C@H]2[C@H](C)O3)c1C(F)(F)F (single isomer, unassigned) [Compound 199] |  |  | 0.98 nM | 1050 nM | 4.06 nM |  | 0.17 nM | 9.63 nM |  |
| Cc1c(Cl)c(N)cc(-c2nc3c4c(nc(OC[C@@]56CCCN5C[C@H](F)C6)nc4c2F)N2C[C@H]4CC[C@H](N4)[C@H]2[C@H](C)O3)c1C(F)(F)F (single isomer, unassigned) [Compound 200] |  |  | 6.83 nM | 593 nM |  |  | 0.1 nM | 6.7 nM |  |
| C[C@@H]1Oc2nc(-c3cc(O)cc4cccc(F)c34)c(F)c3nc(OC[C@@]45CCCN4C[C@H](F)C5)nc(c23)N2C[C@H]3CC[C@H](N3)[C@@H]12 [Compound 9, 5-fluoro-4-((5S,5aS,6S,9R)-1-fluoro-12-(((2R,7aS)-2-fluorotetrahydro-1H-pyrrolizin-7a(5H)-yl)methoxy)-5-methyl-5a,6,7,8,9,10-hexahydro-5H-4-oxa-3,10a,11,13,14-pentaaza-6,9-methanonaphtho[1,8-ab]heptalen-2-yl)naphthalen-2-ol] | 0.057 nM |  | 11.6 nM | 2020 nM | 19.3 nM | 7790 nM |  |  | 6.51 nM |
| Fc1c(-c2cccc3cccc(Cl)c23)nc2c3c(ncnc13)N1C[C@H]3CC[C@H](N3)[C@H]1CO2 [Compound 53, (5aS,6S,9R)-2-(8-Chloronaphthalen-1-yl)-1-fluoro-5a,6,7,8,9,10-hexahydro-5H-4-oxa-3,10a,11,13,14-pentaaza-6,9-methanonaphtho[1,8-ab]heptalene] |  |  |  |  |  |  |  |  | ≥ 200000 nM |
| Nc1nc2c(-c3nc4c5c(ncnc5c3F)N3C[C@H]5CC[C@H](N5)[C@H]3CO4)ccc(F)c2s1 [Compound 55, 7-fluoro-4-((5aS,6S,9R)-1-fluoro-5a,6,7,8,9,10-hexahydro-5H-4-oxa-3,10a,11,13,14-pentaaza-6,9-methanonaphtho[1,8-ab]heptalen-2-yl)benzo[d]thiazol-2-amine] |  |  |  |  | ≥ 20000 nM | 12800 nM |  |  | ≥ 200000 nM |
| Cc1nc(N)c(F)c(-c2nc3c4c(nc(OC[C@@]56CCCN5CC5(CC5(F)F)C6)nc4c2F)N2C[C@H]4CC[C@H](N4)[C@H]2[C@H](C)O3)c1C(F)(F)F (stereo partly drawn) [Compound 221, 4-((5S,5aS,6S,9R)-12-(((7a′S)-2,2-Difluorodihydro-1′H,3′H-spiro[cyclopropane-1,2′-pyrrolizin]-7a′(5′H)-yl)methoxy)-1-fluoro-5-methyl-5a,6,7,8,9,10-hexahydro-5H-4-oxa-3,10a,11,13,14-pentaaza[6,9]methanonaphtho[1,8-ab]heptalene-2-yl)-3-fluoro-6-methyl-5-(trifluoromethyl)pyridin-2-amine] |  |  | 1.45 nM | 498 nM | 1.2 nM |  | 0.39 nM | 9.95 nM |  |
